Assay results as given in patent US20240417428A1, “POLYPEPTIDE FOR INHIBITING TRPM8 AND USE THEREOF” (ZHEJIANG UNIVERSITY, priority 2021, published 2024).
Entries after “also recorded” stand apart in the source; their conditions may differ. Where a SMILES comes first, the peptide text is derived from it.

Assays:
[1] = tested on: Icilin-induced wet-dog shake behavior; experiment: Icilin-induced wet-dog shake test; type: in vivo, mice
Procedure: Adult male CD1 mice (6-8 weeks old) were used as experimental animals for behavioral experiments and primary cultures of DRG neurons. Mice were raised in the condition of 12 h light/12 h dark of light cycle with adequate standard chow and water. All animal protocols were approved by the Institutional Animal Care and Use Committee (IACUC) of Zhejiang University.
At least 6 adult male CD1 mice were prepared for experimental or control groups. The animals were pretreated with Vehicle or DeC-1.2 of gradient dose via intravenous injection (i.v.) at 30 min before icilin (intraperitoneal injection, i.p., 2.5 μg/g body weight) treatment. Wet dog shake behavior was recorded and counted for 30 min following icilin administration.

[2] = molecular target: T1, TRPM4 (Mus musculus, UniProt Q7TN37, K1045A); experiment: Electrophysiological recording, ligand activation of TRPM4 (TRPM4-K1045A); type: cell-based
T1 construct: expressed in transfected cells; host or cells: HEK293T
Procedure: HEK293T cells were cultured in Dulbecco's modified Eagle culture medium under a 37° C., 5% CO2 environment, 10% fetal bovine serum, penicillin (100 U/mL), and streptomycin ([…]) was needed to add into the culture medium. Transient transfection was conducted by using Lipo 2000 (Invitrogen) transfection kit and following the instruction manual.
Electrophysiological experiment recordings were performed on the cells within 24˜48 h of transient transfections. Specifically, single channel electrophysiological recordings were performed within 8 h after transfection.
Measurement of the cell currents was respectively performed in the whole-cell recording mode, inside-out recording mode or outside-out recording mode with a HEKA EPC10 amplifier. In the whole cell electrophysiological recordings, glass microelectrodes made of borosilicate material were fire-polished to a original electrode resistance of about 3-6 MΩ. Serial resistance was compensated by 60%. The whole cell electrophysiological recordings were performed at ±80 mV. For single channel electrophysiological recordings, glass microelectrodes were fire-polished to a higher resistance of 6-8 MΩ2. Current signal was sampled at 10 kHz and filtered at 2.9 kHz. Membrane potential of the cell membrane would be clamped at +80 mV. All electrophysiological recordings were performed at room temperature (22° C.) (the maximum variation is 1° C.). […]

[3] = tested on: CCI-induced cold allodynia; experiment: Chronic constriction injury (CCI) model of neuropathic pain: cold allodynia; type: in vivo; settings: CCI rats
From the text: Male Sprague-Dawley rats (purchased from Shanghai SLAC Laboratory Animal Co., Ltd. at the beginning of the experiment for 7 weeks, n=7-10/treatment) were used. CCI status was formed according to the method of Bennett G J and Xie Y K (Pain 1988, 33:87-107). Rats were anesthetized by intraperitoneal injection of sodium pentobarbital. The left common sciatic nerve was made to be exposed in the middle of the thigh in a state deprived of adherent tissue, and 4-0 silk thread (Ethicon Inc.) was utilized around it and four passes were loosely ligated at approximately 1-mm intervals. Sham surgery was performed in the same manner except for sciatic nerve ligation. After 1-2 weeks after CCI surgery, as documented in Tanimoto-Mori Setal. (BehavPharmacol., 19:85-90, 2008), The cold allodynia was evaluated by using a cooling plate (LHP-1700CP, TECA) with a temperature controller (Mode 13300-0, CAL Controls Inc.). The animals were acclimatized to a device consisting of a transparent acrylic box (10×12×12 cm) on a stainless steel plate (15×33 cm). The surface of the cooling plate was maintained at 10° C., and the temperature of the plate was continuously monitored with an accuracy of 0.1° C. To perform the experiment, rats were loaded on the cooling plate and the polypeptide DeC-1.2 was administered before and after a cutoff value of 120 seconds, and the paw withdrawal latency (PWL) was measured. […]

T1 sequence (Q7TN37 whole entry K1045A): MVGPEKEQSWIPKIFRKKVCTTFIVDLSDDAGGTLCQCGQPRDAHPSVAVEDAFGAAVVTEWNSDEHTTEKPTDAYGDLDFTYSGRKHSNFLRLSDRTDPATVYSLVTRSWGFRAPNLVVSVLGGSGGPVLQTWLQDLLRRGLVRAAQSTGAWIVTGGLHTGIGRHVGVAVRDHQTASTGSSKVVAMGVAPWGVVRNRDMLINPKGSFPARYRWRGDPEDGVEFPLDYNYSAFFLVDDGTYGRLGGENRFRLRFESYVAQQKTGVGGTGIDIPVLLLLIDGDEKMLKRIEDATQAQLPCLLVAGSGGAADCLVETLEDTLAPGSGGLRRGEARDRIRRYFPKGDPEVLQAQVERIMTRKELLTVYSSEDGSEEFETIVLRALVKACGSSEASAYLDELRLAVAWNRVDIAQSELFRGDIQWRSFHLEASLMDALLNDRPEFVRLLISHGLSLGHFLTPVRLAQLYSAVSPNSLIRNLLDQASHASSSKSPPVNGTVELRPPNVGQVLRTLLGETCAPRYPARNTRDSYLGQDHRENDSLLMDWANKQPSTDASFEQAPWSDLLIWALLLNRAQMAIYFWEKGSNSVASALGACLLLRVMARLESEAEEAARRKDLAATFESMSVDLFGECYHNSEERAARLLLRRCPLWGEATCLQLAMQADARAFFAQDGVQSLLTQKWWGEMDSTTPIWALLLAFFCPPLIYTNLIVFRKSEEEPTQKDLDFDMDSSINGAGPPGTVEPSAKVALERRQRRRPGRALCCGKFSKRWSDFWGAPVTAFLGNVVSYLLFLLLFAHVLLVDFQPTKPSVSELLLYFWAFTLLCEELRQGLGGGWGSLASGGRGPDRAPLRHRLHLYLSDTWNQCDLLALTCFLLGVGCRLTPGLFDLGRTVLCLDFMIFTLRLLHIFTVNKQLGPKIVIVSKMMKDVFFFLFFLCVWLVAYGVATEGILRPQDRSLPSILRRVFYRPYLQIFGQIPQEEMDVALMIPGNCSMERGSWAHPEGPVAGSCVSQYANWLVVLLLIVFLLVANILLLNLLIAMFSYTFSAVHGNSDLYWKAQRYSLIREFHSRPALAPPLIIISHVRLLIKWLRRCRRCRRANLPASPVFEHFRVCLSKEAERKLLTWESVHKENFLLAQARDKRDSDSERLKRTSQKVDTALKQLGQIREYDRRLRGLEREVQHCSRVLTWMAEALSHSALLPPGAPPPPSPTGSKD

C[C@@H]1NC(=O)[C@H](CCCNC(=N)N)NC(=O)[C@H](CC(=O)O)NC(=O)[C@H](CCCNC(=N)N)NC(=O)[C@H](CCCNC(=N)N)NC(=O)[C@@H](N)CSSC[C@@H](C(=O)O)NC(=O)[C@H](CCCNC(=N)N)NC(=O)[C@H](CCC(N)=O)NC(=O)[C@H](CCCNC(=N)N)NC(=O)[C@H](Cc2ccc(O)cc2)NC(=O)[C@H](Cc2c[nH]cn2)NC(=O)[C@H](CCCNC(=N)N)NC1=O [DeC-1.2, CRRDRARHYRQRC] (HELM PEPTIDE1{C.R.R.D.R.A.R.H.Y.R.Q.R.C}$PEPTIDE1,PEPTIDE1,1:R3-13:R3$$$V2.0; N-terminus and C-terminus assumed)
inhibition of WSD behaviors induced by icilin ([1]; 0.3 μg/g body weight i.v., 30 min before icilin): significantly inhibit
reduction of WDS behavior in icilin treated mice ([1]; 30 μg/g body weight i.v.): largely reduce WDS behavior
dose dependence of inhibition of icilin-induced wet-dog shakes ([1]; gradient dose i.v.): dose-dependently significantly reduces; also recorded: significantly dose-dependent
IC50 [2]: > 10 µM
activity against cold allodynia (paw withdrawal latency, 10° C. cooling plate) [3]: exhibited strong activity
